Here are results for one compound from US6025365A, “Chelerythrine and radiation combined tumor therapy” (Arch Development Corp., priority 1997, dated 2000).

One experiment deals with neutral sphingomyelinase. Briefly: Mixed micellar assay, neutral sphingomyelinase activity in treated WEHI-231 cells. The following applies: chelerythrine, within 30 minutes; SD. Type of experiment: cell-based, murine. The procedure: FIG. 7C. Graph of neutral and acidic sphingomyelinase activity normalized to percent of control. Cells (2×10^7) were treated with chelerythrine for 30 minutes prior to being assayed for neutral or acidic sphingomyelinase activity. Error bars represent +/- SEM from 4 individual studies with duplicate determinants.
The mixed micellar sphingomyelinase assay using ^[14] C labeled sphingomyelin was performed as described (Wiegmann et al., 1994) with minor modifications as described herein. Exponentially growing cells 2×10^7 were treated, collected, and lysed in 200 μl of neutral buffer (20 mM Hepes, pH 7.4; 10 mM MgCl2, 2 mM EDTA, 5 mM DTT, […], 10 mM b-glycerolphosphate, 750 μM ATP, 1 mM PMSF, Leupeptin, Pepstatin, 2% Triton X-100) or an acid buffer (pH=5.5, 2% Triton X-100, 1 mM PMSF, Leupeptin, Pepstatin). After incubation for 5 minutes at 4° C., cells were homogenized by sonication and cell debris were removed by low speed centrifugation (800×g). The protein concentration was measured using the BioRad protein assay system (BioRad). Protein (50 μg) was incubated for 2 hours at 37° C. in a buffer (1 ml final volume) containing 20 mM HEPES, 1 mM MgCl2, and 0.9 μl [N-methyl-^14 C sphingomyelin]. […] Radioactive phosphorylcholine was measured by scintillation counting. Data is expressed as a percent of control for both the acidic and neutral sphingomyelinases. […]

For another experiment, the system named is WEHI-231 cells. Briefly: Sphingomyelin mass by lipid extraction / TLC. Type of experiment: cell-based, murine. The following applies: 10 μM chelerythrine, 60 minutes. How it is done:
FIG. 7A. Inhibition of PKC causes an increase in ceramide production through the activation of a neutral sphingomyelinase and decreases in sphingomyelin levels. Ceramide production was quantitated using the DAG kinase assay for WEHI-231 JM cells and total lipid extraction was used to assay sphingomyelin mass. Following addition of 10 μM chelerythrine, cells were lysed at the appropriate time points as described herein. Each data point represents the average percentage change in ceramide or sphingomyelin generation from baseline derived from at least 8 independent studies for all time points with the exception of those marked with * (n=4). Standard deviations depicted by error bars.
FIG. 7B. […] Ceramide production and sphingomyelin mass was quantitated identical to that for chelerythrine. Cells were lysed 2 hours following the addition of 250 nM calphostin C. […]
Cells were prelabeled with [^3 H] palmitate (10 μCi/ml) for 24 hours to isotopic equilibrium in 15 ml glass tubes to minimize changes in cellular ceramide and sphingomyelin due to handling and changing of media (Borchardt et al., 1994). […] Autoradiographs were quantitated using an Epson 1200 c 30 bit scanner and NIH Image software (public domain program developed at the NIH and available from the Internet via FTP from zippy.nimh.nih.gov). […]

The test system of a further experiment is SQ-20B xenografts. The experiment can be described thus: Growth of SQ-20B tumor xenografts in nude mice. Type of experiment: in vivo, nude mice (human tumor xenograft). How it is done:
FIG. 6. The SQ-20B xenograft system was used to assess the therapeutic efficacy of the combined treatment modality over 30 days. Forty animals (n=40) were treated in each group and the % mean tumor growth was determined for all animals. Calipers were used to measure tumor growth.
SQ-20B (1-5×10^6) tumor cells were injected into the right hind limbs of nude mice (Fredrick Cancer Research Institute). Xenografts were grown for 2-3 weeks to a mean tumor volume of […]. At day 0, initial tumor volume was determined by direct measurement with calipers. During treatment tumor volumes were measured with calipers twice weekly and represented as percent of original tumor volume. Tumor volumes were calculated by the formula (a×b×c/2) which was derived from that for an ellipsoid (d3/6). Tumor cure was defined as regression to a volume of <10% of original size since, at this volume, it is impossible to differentiate residual tumor from scar tissue. Xenografts were injected with 2 mg/kg chelerythrine chloride on days 0, 3, 7 and 10. Irradiated mice were immobilized in lucite chambers and the entire body was shielded with lead except for the tumor bearing hind limb 14. Tumors were irradiated (5 Gy/day, 4 days/week) to a total dose of 50 Gy using a Maxitron generator (1.88 Gy/min.). Tumors were treated with radiation alone, chelerythrine alone, and buffer or chelerythrine combined with radiation. Data were calculated as the percent of original (day 0) tumor volume and graphed as fractional tumor volume±SEM.
Radiation was delivered at 5 Gy/day, 4 days per week, for a total of 50 Gy.
In general terms: Xenograft models place foreign cells or tissue in a host animal.

Regarding `COc1ccc2c(c[n+](C)c3c4cc5c(cc4ccc23)OCO5)c1OC` [chelerythrine, 1,2-dimethoxy-12-methyl[1,3]benzodioxolo[5,6-c]phenanthridinium], the neutral sphingomyelinase activity in the experiment with neutral sphingomyelinase is listed as 235% (+/-38 SD). Further, the sphingomyelin mass entry in the experiment with WEHI-231 cells is recorded as “about 55 % of control”. In addition, the “animals with regression to less than 10% of original tumor volume, combined treatment” value with SQ-20B xenografts (2 mg/kg chelerythrine x4 plus 50 Gy, day 31) was 20/41. Moreover, in the experiment on SQ-20B xenografts (2 mg/kg x4, day 31), the “animals with regression to less than 10% of initial tumor volume, chelerythrine only” value is reported as 13/43. Further, the “tumor regrowth, volume at day 30” value with SQ-20B xenografts (chelerythrine alone, 2 mg/kg days 0, 3, 7, 10) is recorded as 174 % of the original volume.
